The values below come from patent US20100280084A1, “Cyp1B1 Genotype” (Government of the US, as represented by the Secret ary, …, priority 2005, published 2010).

The target in data set [1] is T1, CYP1B1 (Homo sapiens, UniProt Q16678).
T1 sequence (Q16678 1-543): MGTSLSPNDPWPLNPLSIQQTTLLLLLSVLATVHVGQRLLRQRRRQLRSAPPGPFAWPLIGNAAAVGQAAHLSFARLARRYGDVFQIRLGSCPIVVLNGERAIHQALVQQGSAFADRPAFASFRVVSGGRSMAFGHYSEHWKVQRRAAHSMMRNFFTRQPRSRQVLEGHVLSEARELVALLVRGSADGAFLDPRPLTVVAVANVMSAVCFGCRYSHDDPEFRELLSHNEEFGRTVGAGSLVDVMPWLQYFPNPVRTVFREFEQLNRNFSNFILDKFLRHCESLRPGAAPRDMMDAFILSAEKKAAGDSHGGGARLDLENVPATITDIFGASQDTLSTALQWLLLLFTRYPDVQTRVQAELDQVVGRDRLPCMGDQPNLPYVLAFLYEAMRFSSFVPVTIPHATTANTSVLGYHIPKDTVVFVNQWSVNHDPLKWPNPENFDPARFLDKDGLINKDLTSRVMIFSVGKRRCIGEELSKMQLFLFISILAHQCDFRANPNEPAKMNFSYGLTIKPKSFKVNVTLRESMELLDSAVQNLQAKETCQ
The note with it: previous preclinical studies (references 2, 3); cited from earlier work.

Data set [2] addresses T1, CYP1B1. The note with it: in vitro studies (reference 16); cited from earlier work.
Data set [3] in a line: Docetaxel clearance as a function of CYP1B1*3 genotype in 23 patients. The settings on record: human, in vivo, P=0.39. As to the method: To exclude the possibility that the observed decreased survival time for subjects carrying the CYP1B1*3/*3 variant was the result of altered exposure to docetaxel, the pharmacokinetic data generated in a previous study (15) in 23 patients treated with docetaxel as a function of CYP1B1*3 genotype was analyzed.

Data set [4] relates to androgen-independent prostate cancer (AIPC). Nature of the data set: Survival by CYP1B1*3 genotype in men with AIPC treated with docetaxel (Kaplan-Meier). In kind it is in vivo, human. The note with it: for overall median survival: docetaxel 30 mg/m^2 1-hour i.v. weekly for 3 weeks, 1-week rest. As to the method: FIG. 1 depicts Kaplan-Meier curves of overall survival (o-CYP1B1*3; *-CYP1B1*1/*1 and CYP1B1*1/*3) (A) and overall progression free survival (B) in men with prostate cancer treated with docetaxel as a function of CYP1B1*3 genotype. All patients received docetaxel as a 1-hour intravenous infusion at a dose of 30 mg/m^2 in cycles of once every week for 3 consecutive weeks, followed by a 1-week rest period (n=25). DNA was extracted from a […] using a QiaBlood extraction kit (Qiagen, Valencia, Calif.) and stored at 4° C. The CYP1B1*3 alleles were analyzed by direct sequencing. The primers used for sequencing and amplification of the variant were as follows: F4-[…]; R4-[…]; F5-[…]; R5-[…]. A 50-μl reaction was prepared for polymerase chain reaction (PCR) amplification using primers F4 and R4. The reaction consisted of 1×PCR buffer, 2 mM of each of the four deoxynucleotidetriphosphates (dNTPs), 1.5 mM magnesium chloride, and 1 unit of Platinum Taq DNA polymerase. PCR conditions were: 94° C. for 5 minutes, followed by 40 cycles of 94° C. for 30 seconds, 66° C. for 30 seconds, and 72° C. for 30 seconds, with a final 7-minute cycle at 72° C. Direct nucleotide sequencing PCR was conducted using the Big Dye Terminator Cycle Sequencing Ready Reaction kit V1.1 on an ABI Prism 310 Genetic Analyzer (Applied BioSystems, Foster City, Calif.).
The CYP1B1 genotypes on germline DNA obtained from 25 men with AIPC treated with docetaxel (Aventis Pharmaceuticals, Bridgewater, N.J.) were retrospectively evaluated. The subjects were administered docetaxel intravenously over 1-hour at a dose of 30 mg/m^2 in whom detailed survival data were available (Table 1). Inclusion and exclusion criteria have been previously published (12). The study protocol was approved by the Institutional Review Board (Bethesda, Md.), and all patients provided written informed consent. DNA was isolated from whole blood and variants in the CYP1B1 gene were analyzed by direct nucleotide sequencing (see Legend to FIG. 1). The association between genotypes and progression-free survival and overall survival was determined by the Kaplan-Meier method using a two-tailed log rank test. The homozygous wild-type (CYP1B1*1/*1) and heterozygous variant (CYP1B1*1/*3) genotypes were pooled in the analysis on the basis of similarity of outcomes. The associated p-value was adjusted to be two times the unadjusted value to account for the two implicit comparisons made in determining the desirability of combining groups. Progression was censored at the off study date if a patient was removed for toxicity or another reason.

Data set [5] deals with transfected Chinese hamster ovary cells. The note with it: reversible by chemical inhibition (references 2, 3); cited from earlier work.

By clearance is commonly meant the rate of elimination divided by the concentration. Higher therefore signals a high capacity for elimination. Turning to `CC(=O)O[C@@]12CO[C@@H]1C[C@H](O)[C@@]1(C)C(=O)[C@H](O)C3=C(C)[C@@H](OC(=O)[C@H](O)[C@@H](NC(=O)OC(C)(C)C)c4ccccc4)C[C@@](O)([C@@H](OC(=O)c4ccccc4)[C@H]21)C3(C)C` [docetaxel], in data set [1], the “inhibition of CYP1B1-mediated ethoxyresorufin O-deethylation” value is “competitively inhibits”. For the same compound, in data set [2], the “metabolism by CYP1B1” value is reported as “not directly metabolized by CYP1B1”. The clearance was 533 mL/min in data set [3] (patients homozygous for the variant allele, 95% CI 26.9 to 37.0 L/h) and 637 mL/min in data set [3] (patients homozygous or heterozygous for the wild-type allele, 95% CI 27.5 to 48.9 L/h). Further, the overall median survival in data set [4] (5 patients homozygote variant (CYP1B1*3/*3)) is on record as 7.5 months; in data set [4] (7 wild type plus 13 heterozygotes (CYP1B1*1/*1 and *1/*3 pooled)) it was 15.3 months. For the same compound, the progression free survival turned out to be 3.3 months in data set [4] (CYP1B1*3/*3 variant, P=0.13 versus pooled genotypes); 6.2 months in data set [4] (pooled wild type and heterozygous genotypes, P=0.13 versus CYP1B1*3/*3). Besides, the “decrease in median survival time” value in data set [4] (CYP1B1*3/*3 versus pooled wild type and heterozygotes, P=0.012) is given as 7.8 months. Moreover, the “effect of CYP1B1 overexpression on cellular sensitivity to docetaxel” value in data set [5] is on record as “docetaxel resistance”.
